# Patent US20240216412A1, “OXIDIZED NICOTINAMIDE ADENINE DINUCLEOTIDE (NAD+) PRECURSOR TREATMENT FOR HEART FAILURE ALLEVIATION INDEPENDENT OF MITOCHONDRIAL PROTEIN DEACETYLATION” (University of Washington, priority 2022, published 2024)
# Test system: NAD(H) levels in hearts and livers
# Test: Heart and liver NAD+/NADH after oral or IP NR administration (Experimental Example 2)
# Type: in vivo, mouse
# Procedure: Mice 2-4 months old were used, weighing 25 to 27 g, with water intake ranging from 3.5 to 6.5 ml/day. To each mouse, either NR as an NAD precursor was administered daily or vehicle was administered daily, for up to 10 days, either by IP injection or orally by drinking water. Saline was used as vehicle for IP injection. For oral administration, vehicle was unmodified drinking water. NR was supplied substantially as in Experimental Example 1. For IP administration, NR was diluted in sterile, pharmaceutical-grade isotonic saline at concentrations based on weight-based dosing per subject to provide respective 500 mg/kg body weight daily doses as administrated by IP injection. Additionally, for oral administration, NR was dissolved in sterile filtered water at concentrations based on weight-based dosing per subject to provide respective 400 mg/kg body weight daily doses, provided for drinking adlibitum. […] Over the first several days of oral administration of NR solutions, the consumption of NR water was monitored daily to verify that mice are not finding the NR water unpalatable and becoming dehydrated. […] NAD^+ and NADH were determined in approximately 6 mg heart tissue and approximately 6 mg liver tissue using BioAssay Systems EnzyChrom NAD^+/NAD Assay Kit ([…]-100) per manufactures instructions.
smiles,measurement,setting,value
"NC(=O)c1ccc[n+]([C@@H]2O[C@H](CO)[C@@H](O)[C@H]2O)c1 [NR, Nicotinamide riboside chloride]","Increase of NAD(H) in hearts and livers, IP injection over oral administration",IP 500 mg/kg daily 10 days vs oral 400 mg/kg daily 3 or 7 days,greater increases
same,Levels of NAD(H) in hearts and livers,"oral 400 mg/kg daily 3 or 7 days, IP 500 mg/kg daily 10 days",increased
